According to PubChem BioAssay (NCI):
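How tested: cells in 96-well plates exposed to compound for 48 hours at five concentrations. TGI marks complete inhibition of growth.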

Key:
Assay in all cases: DTP human tumour cell line panel, 48 h
SF-295 CNS = system: SF-295 CNS
A549 NSCLC = system: A549 NSCLC
SN12C renal = system: SN12C renal
HCC-2998 colon = system: HCC-2998 colon
SK-MEL-28 melanoma = system: SK-MEL-28 melanoma
SF-268 CNS = system: SF-268 CNS
SR leukemia = system: SR leukemia
MCF7 breast = system: MCF7 breast
OVCAR-4 ovarian = system: OVCAR-4 ovarian
HCT-15 colon = system: HCT-15 colon

| Compound | TGI (SF-295 CNS) [µM] | TGI (A549 NSCLC) [µM] | TGI (SN12C renal) [µM] | TGI (HCC-2998 colon) [µM] | TGI (SK-MEL-28 melanoma) [µM] | TGI (SF-268 CNS) [µM] | TGI (SR leukemia) [µM] | TGI (MCF7 breast) [µM] | TGI (OVCAR-4 ovarian) [µM] | TGI (HCT-15 colon) [µM] |
| --- | --- | --- | --- | --- | --- | --- | --- | --- | --- | --- |
| O=C(NCCO)c1c(O)c2ccccc2[nH]c1=O | > 100 | > 100 | > 100 | > 100 | > 100 | > 100 | > 100 | > 100 | > 100 | > 100 |
| O=C1CCC2=C(CCC2)N1CCc1ccc2c(c1)OCO2 | > 100 | > 100 | > 100 | > 100 | > 100 | > 100 | > 100 | > 100 | > 100 | > 100 |
| COC(=O)c1ccc(C)cc1C1CN=NC12Cc1cc(C)c(C)cc1C2=O (stereo not drawn) | > 100 | > 100 | > 100 | 81.7 | > 100 | > 100 | > 100 | > 100 | > 100 | > 100 |
| CC1NOC(NS(=O)(=O)c2ccc(N=Nc3c(O)c(C(=O)O)cc4ccccc34)cc2)C1C (stereo not drawn) | > 100 | > 100 | – | > 100 | > 100 | > 100 | > 100 | > 100 | > 100 | > 100 |
| c1ccc(C(CCN2CCCC2)c2ccccn2)cc1 (stereo not drawn) | > 100 | > 100 | > 100 | > 100 | > 100 | > 100 | > 100 | > 100 | > 100 | > 100 |
| CC(C)OC(=O)c1ccc(CCC2=CC(=O)C(Br)=CC2=O)cc1 | 39.6 | > 100 | 31.1 | 31.9 | 32.7 | 32.3 | > 100 | 35.2 | 23.1 | 29.6 |
| N#CC1N(C(=O)c2ccc(F)cc2)c2ccccc2N1C(=O)c1ccc(F)cc1 | > 100 | > 100 | > 100 | > 100 | > 100 | > 100 | > 100 | > 100 | > 100 | > 100 |
| O=C(c1ccc(Cl)cc1)N(Cc1cccnc1)C(=S)N(Cc1cccnc1)C(=O)c1ccc(Cl)cc1 | > 100 | > 100 | 48.1 | 61.3 | > 100 | 79.5 | > 100 | > 100 | 79.7 | > 100 |
| CC[C@@]1(O)C(=O)OCc2c1cc1n(c2=O)Cc2c-1nc1ccccc1c2/C=N\NC(=O)C(N)CS (stereo partly drawn) | > 33.9 | > 100 | > 22.8 | > 100 | > 100 | > 100 | 1.04 | > 100 | > 100 | > 100 |
| O=C1c2ccccc2C2(c3ccc(Cl)cc3)NCc3ccccc3CN12 (stereo not drawn) | 35.7 | 43.8 | > 100 | 45.6 | > 100 | > 100 | > 100 | 40 | 79.3 | 60.7 |
| c1ccc([C@H]2CN3CCSC3=N2)cc1 | > 100 | > 100 | > 100 | > 100 | > 100 | > 100 | > 100 | > 100 | > 100 | > 100 |
| C=C1C(=O)[C@]23[C@H](O)[C@H]1CC[C@H]2[C@@]12CO[C@@]3(O)C[C@@H]1C(C)(C)CC[C@@H]2O | > 25 | > 25 | > 25 | 23.4 | 22.3 | 20.9 | > 25 | 13.1 | > 25 | 19.6 |
| CC(=O)NC1C(OCc2ccccc2)OC(CO)C(O)C1OCC(=O)NC(C)C(=O)NC(CCC(=O)NCCCCCC(=O)Nc1ccc2c(c1)CN1C(=O)c3ccccc3C1=N2)C(N)=O (stereo not drawn) | > 100 | > 100 | > 100 | > 100 | > 100 | > 100 | 42.5 | > 100 | > 100 | > 100 |
| COc1ccc2[nH]c(C(=O)N3CC(CCl)c4ccc([N+](=O)[O-])cc43)cc2c1 (stereo not drawn) | > 100 | > 100 | > 100 | > 100 | > 100 | > 100 | > 100 | > 100 | > 100 | > 100 |
| CN(N)C(=O)NCCCl | > 100 | > 100 | > 100 | > 100 | > 100 | > 100 | > 100 | > 100 | > 100 | > 100 |
| Cc1ccc(S(=O)(=O)n2cc(-c3cnc(N)c(Br)n3)c3ccccc32)cc1 | > 100 | > 100 | 11.9 | > 100 | > 57 | > 100 | 10.2 | > 45.7 | > 100 | > 100 |
| NCCCCNCCCN | > 100 | > 100 | – | > 100 | > 100 | > 100 | > 100 | > 100 | 37.6 | > 100 |
| O=C(NN=C1CCCCC1)Nc1ccccc1Cl | > 100 | > 100 | > 100 | > 100 | > 100 | > 100 | > 100 | > 100 | > 100 | > 100 |
